Experimental data from US20080275085A1, “Piperidine derivative and use thereof” (priority 2007, published 2008).
Structures can show the parent of a compound that is named as a salt.

Target: T1, substance P receptor (Homo sapiens, UniProt P25103)
T1 construct: The receptor was prepared from human lymphoblast cells (IM-9); endogenous in cells; host or cells: IM-9 human lymphoblast cells (membrane fraction, 100,000xG precipitate)
Assay: Radioligand receptor binding inhibitory activity (125I-BHSP binding, receptor from IM-9 cells)
Settings: receptor from human lymphoblast cells (IM-9); radioligand 125I-BHSP; 25° C., 30 min
Protocol: Radioligand Receptor Binding Inhibitory Activity (Binding Inhibitory Activity Using Receptor from Human Lymphoblast Cells (IM-9))
The method of M. A. Cascieri et al., “Molecular Pharmacology, vol. 42, p. 458 (1992)” was modified and used. The receptor was prepared from human lymphoblast cells (IM-9).
IM-9 cells (2×10^5 cells/mL) were inoculated and incubated for 3 days, which was then subjected to centrifugation for 10 min. at 500×G to give cell pellets. The obtained pellets were washed with PBS (GIBCO), disrupted in buffer A (50 mM tris.hydrochloric acid buffer (pH 7.4) containing 120 mM sodium chloride, 5 mM potassium chloride, 2 μg/mL chymostatin, 40 μg/mL bacitracin, 40 μg/mL APMSF, 1 mM ethylenediamine tetra acetic acid) using a polytron.homogenizer [manufactured by Kinematika, Germany], and centrifuged at 100,000×G for 40 min. The precipitated fraction was suspended in buffer B (50 mM Tris-HCl (pH 7.4), 0.02% bovine serum albumin, 2 μg/mL chymostatin, 40 μg/mL bacitracin, 40 μg/mL APMSF, 3 mM MgCl2), which was then cryopreserved (−80° C.) as a receptor specimen.
Buffer B (50 μL) was added to a 96 well microassay plate (CORNING). Thereto was added 50 μL of membrane preparation suspended in buffer B at 250 μg/mL. A measurement buffer (50 μL) containing 2% dimethyl sulfoxide was added to examine total binding; 4 μM unlabeled SP (50 μL) diluted with a measurement buffer containing 2% dimethyl sulfoxide was added to examine non-specific binding; and 50 μL of a test compound (containing 2% dimethyl sulfoxide) diluted with a measurement buffer was added to examine binding inhibitory activity of the test compound. In addition, […] ^125I-BHSP solution (50 μL) was added to each well.
After reaction at 25° C. for 30 min, the cells were rapidly filtered through a GF/C filter plate (PerkinElmer) using a cell harvester (manufactured by PerkinElmer) to quench the reaction, and washed 10 times with 250 μL of 50 mM tris-HCl buffer (pH 7.4) containing 0.02% bovine serum albumin. The GF/C filter plate was dried, MicroScinti 0 (20 μL) was added, and the radioactivity was measured with TopCount (manufactured by PerkinElmer). The GF/C filter plate was immersed in 0.3% polyethylene imine for one day before use.
Specific binding is a value obtained by subtracting nonspecific binding from total binding. The binding inhibitory activity of a test compound is shown by a ratio of a value obtained by subtracting a measurement value with addition of a test compound from the total binding, relative to specific binding.
The antagonistic activity of the compounds obtained in the Examples was determined as a concentration necessary for causing 50% inhibition (IC50 value) under the above-described conditions, and the results shown in Table 34 were obtained.
The radio ligand means substance P labeled with [^125I].

T1 sequence (P25103 whole entry): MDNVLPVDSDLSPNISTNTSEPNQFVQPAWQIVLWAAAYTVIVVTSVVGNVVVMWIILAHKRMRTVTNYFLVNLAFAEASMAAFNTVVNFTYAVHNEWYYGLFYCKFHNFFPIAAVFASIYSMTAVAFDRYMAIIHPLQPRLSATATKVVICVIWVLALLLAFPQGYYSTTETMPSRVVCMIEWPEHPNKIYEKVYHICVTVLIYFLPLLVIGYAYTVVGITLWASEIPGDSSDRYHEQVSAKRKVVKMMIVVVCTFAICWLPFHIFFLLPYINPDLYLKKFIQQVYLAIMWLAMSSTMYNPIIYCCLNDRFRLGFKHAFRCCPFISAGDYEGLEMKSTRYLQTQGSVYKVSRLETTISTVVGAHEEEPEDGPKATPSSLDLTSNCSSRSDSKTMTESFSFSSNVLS

Structure (SMILES) | IC50 [nM]
Cc1cc(F)ccc1[C@H]1CN(C(=O)CCS(C)(=O)=O)CC[C@@H]1C(=O)N(C)[C@@H](C)c1cc(C(F)(F)F)cc(C(F)(F)F)c1 [Example 160, (3S,4S)—N-{(1S)-1-[3,5-bis(trifluoromethyl)phenyl]ethyl}-3-(4-fluoro-2-methylphenyl)-N-methyl-1-[3-(methylsulfonyl)propanoyl]piperidine-4-carboxamide] | 0.032
Cc1cc(F)ccc1[C@H]1CN(C(=O)C2CCN(C(=O)CO)CC2)CC[C@@H]1C(=O)N(C)[C@@H](C)c1cc(C(F)(F)F)cc(C(F)(F)F)c1 [Example 152, (3S,4S)—N-{(1S)-1-[3,5-bis(trifluoromethyl)phenyl]ethyl}-3-(4-fluoro-2-methylphenyl)-1-[(1-glycoloylpiperidin-4-yl)carbonyl]-N-methylpiperidine-4-carboxamide] | 0.015
Cc1ccsc1C1CN(C(=O)C2CCN(C(=O)CO)CC2)CCC1C(=O)N(C)[C@@H](C)c1cc(C(F)(F)F)cc(C(F)(F)F)c1 (single isomer, unassigned; more polar) [Example 176, (3R*,4S*)—N-{(1S)-1-[3,5-bis(trifluoromethyl)phenyl]ethyl}-1-[(1-glycoloylpiperidin-4-yl)carbonyl]-N-methyl-3-(3-methyl-2-thienyl)piperidine-4-carboxamide (more polar)] | 0.051
Cc1cc(F)ccc1[C@@H]1CN(C(C)(C)C(N)=O)CC[C@H]1C(=O)N(C)Cc1cc(C(F)(F)F)cc(C(F)(F)F)c1 (relative stereo) [Example 113, (3R*,4R*)-1-(2-amino-1,1-dimethyl-2-oxoethyl)-N-[3,5-bis(trifluoromethyl)benzyl]-3-(4-fluoro-2-methylphenyl)-N-methylpiperidine-4-carboxamide monohydrochloride] | 0.061
Cc1cc(F)ccc1[C@H]1CN(C(=O)CN2C(=O)OC(C)(C)C2=O)CC[C@@H]1C(=O)N(C)[C@@H](C)c1cc(C(F)(F)F)cc(C(F)(F)F)c1 [Example 154, (3S,4S)—N-{(1S)-1-[3,5-bis(trifluoromethyl)phenyl]ethyl}-1-[(5,5-dimethyl-2,4-dioxo-1,3-oxazolidin-3-yl)acetyl]-3-(4-fluoro-2-methylphenyl)-N-methylpiperidine-4-carboxamide] | 0.097
Cc1ccccc1[C@H]1CN(C(=O)CN2C(=O)OC(C)(C)C2=O)CC[C@@H]1C(=O)N(C)[C@@H](C)c1cc(C(F)(F)F)cc(C(F)(F)F)c1 [Example 30, (3S,4S)—N-{(1S)-1-[3,5-bis(trifluoromethyl)phenyl]ethyl}-1-[(5,5-dimethyl-2,4-dioxo-1,3-oxazolidin-3-yl)acetyl]-N-methyl-3-(2-methylphenyl)piperidine-4-carboxamide] | 0.057
Cc1cc(F)ccc1[C@@H]1CN(C(C)CO)CC[C@H]1C(=O)N(C)Cc1cc(C(F)(F)F)cc(C(F)(F)F)c1 (relative stereo) [Example 120, (3R*,4R*)—N-[3,5-bis(trifluoromethyl)benzyl]-3-(4-fluoro-2-methylphenyl)-1-(2-hydroxy-1-methylethyl)-N-methylpiperidine-4-carboxamide monohydrochloride] | 0.043
CC(=O)Nc1ccc(N2CC[C@@H](C(=O)N(C)Cc3cc(C(F)(F)F)cc(C(F)(F)F)c3)[C@H](c3ccc(F)cc3C)C2)nc1 (relative stereo) [Example 129, (3R*,4R*)-1-[5-(acetylamino)pyridin-2-yl]-N-[3,5-bis(trifluoromethyl)benzyl]-3-(4-fluoro-2-methylphenyl)-N-methylpiperidine-4-carboxamide monohydrochloride] | 0.095

Further molecules by falling IC50, results first:

IC50 [nM] | Structure (SMILES)
0.096 | Cc1cc(F)ccc1[C@@H]1CN(CC(=O)NC2CC2)CC[C@H]1C(=O)N(C)Cc1cc(C(F)(F)F)cc(C(F)(F)F)c1 (relative stereo) [Example 103, (3R*,4R*)—N-[3,5-bis(trifluoromethyl)benzyl]-1-[2-(cyclopropylamino)-2-oxoethyl]-3-(4-fluoro-2-methylphenyl)-N-methylpiperidine-4-carboxamide monohydrochloride]
0.077 | Cc1cc(F)ccc1[C@@H]1CN(CC(N)=O)CC[C@H]1C(=O)N(Cc1cc(C(F)(F)F)cc(C(F)(F)F)c1)C1CC1 (relative stereo) [Example 169, (3R*,4R*)-1-(2-amino-2-oxoethyl)-N-[3,5-bis(trifluoromethyl)benzyl]-N-cyclopropyl-3-(4-fluoro-2-methylphenyl)piperidine-4-carboxamide monohydrochloride]
0.042 | Cc1cc(F)ccc1[C@@H]1CN(CC(=O)N2CCC(O)CC2)CC[C@H]1C(=O)N(C)Cc1cc(C(F)(F)F)cc(C(F)(F)F)c1 (relative stereo) [Example 104, (3R*,4R*)—N-[3,5-bis(trifluoromethyl)benzyl]-3-(4-fluoro-2-methylphenyl)-1-[2-(4-hydroxypiperidin-1-yl)-2-oxoethyl]-N-methylpiperidine-4-carboxamide monohydrochloride]
0.037 | Cc1cc(F)ccc1[C@@H]1CN(S(=O)(=O)CCN2CCOCC2)CC[C@H]1C(=O)N(C)Cc1cc(C(F)(F)F)cc(C(F)(F)F)c1 (relative stereo) [Example 139, (3R*,4R*)—N-[3,5-bis(trifluoromethyl)benzyl]-3-(4-fluoro-2-methylphenyl)-N-methyl-1-[(2-morpholin-4-ylethyl)sulfonyl]piperidine-4-carboxamide monohydrochloride]
0.033 | Cc1cc(F)ccc1[C@H]1CN(C(=O)C2CCN(C(=O)[C@H](C)O)CC2)CC[C@@H]1C(=O)N(C)Cc1cc(C(F)(F)F)cc(C(F)(F)F)c1 [Example 150, (3S,4S)—N-[3,5-bis(trifluoromethyl)benzyl]-3-(4-fluoro-2-methylphenyl)-1-({1-[(2S)-2-hydroxypropanoyl]piperidin-4-yl}carbonyl)-N-methylpiperidine-4-carboxamide]
0.026 | Cc1cc(F)ccc1[C@@H]1CN(C2CCN(C(=O)C(N)=O)CC2)CC[C@H]1C(=O)N(C)Cc1cc(C(F)(F)F)cc(C(F)(F)F)c1 (relative stereo) [Example 108, (3R*,4R*)-1′-[amino(oxo)acetyl]-N-[3,5-bis(trifluoromethyl)benzyl]-3-(4-fluoro-2-methylphenyl)-N-methyl-1,4′-bipiperidine-4-carboxamide monohydrochloride]
0.025 | Cc1cc(F)ccc1[C@@H]1CN(CCC(C)(C)O)CC[C@H]1C(=O)N(C)Cc1cc(C(F)(F)F)cc(C(F)(F)F)c1 (relative stereo) [Example 123, (3R*,4R*)—N-[3,5-bis(trifluoromethyl)benzyl]-3-(4-fluoro-2-methylphenyl)-1-(3-hydroxy-3-methylbutyl)-N-methylpiperidine-4-carboxamide monohydrochloride]
0.023 | Cc1cc(F)ccc1[C@@H]1CN(C2CCN(C(N)=O)CC2)CC[C@H]1C(=O)N(C)Cc1cc(C(F)(F)F)cc(C(F)(F)F)c1 (relative stereo) [Example 109, (3R*,4R*)—N^4-[3,5-bis(trifluoromethyl)benzyl]-3-(4-fluoro-2-methylphenyl)-N^4-methyl-1,4′-bipiperidine-1′,4-dicarboxamide monohydrochloride]
0.023 | Cc1ccccc1[C@H]1CN(C(=O)C2CCN(C(=O)[C@@H](C)O)CC2)CC[C@@H]1C(=O)N(C)Cc1cc(C(F)(F)F)cc(C(F)(F)F)c1 [Example 29, (3S,4S)—N-[3,5-bis(trifluoromethyl)benzyl]-1-({1-[(2R)-2-hydroxypropanoyl]piperidin-4-yl}carbonyl)-N-methyl-3-(2-methylphenyl)piperidine-4-carboxamide]
0.017 | Cc1cc(F)ccc1[C@H]1CN(C(=O)C(N)=O)CC[C@@H]1C(=O)N(C)[C@@H](C)c1cc(C(F)(F)F)cc(C(F)(F)F)c1 [Example 178, (3S,4S)-1-[amino(oxo)acetyl]-N-{(1S)-1-[3,5-bis(trifluoromethyl)phenyl]ethyl}-3-(4-fluoro-2-methylphenyl)-N-methylpiperidine-4-carboxamide]
0.015 | Cc1cc(F)ccc1[C@H]1CN(C(=O)C2CCN(C(=O)CO)CC2)CC[C@@H]1C(=O)N(C)Cc1cc(C(F)(F)F)cc(C(F)(F)F)c1 [Example 149, (3S,4S)—N-[3,5-bis(trifluoromethyl)benzyl]-3-(4-fluoro-2-methylphenyl)-1-[(1-glycoloylpiperidin-4-yl)carbonyl]-N-methylpiperidine-4-carboxamide]
